The values that follow are results of earlier work, collected in US4138582A, “Cycloalkenyl analogues of prostaglandin A” (Miles Laboratories, Inc., priority 1977, dated 1979).

In one data set the test system is growth hormone. To be noted: rats.
For data set [1], the system named is gastric secretion. To be noted: dogs.
In data set [2] the test system is gastric secretion. The note with it: man.
In the next data set the test system is human platelets. To be noted: result in words.
In the next data set the test system is blood platelets. The note with it: in vitro.
For data set [3], the system named is female reproductive system. To be noted: fertility, labor, abortion, menstruation.

“Also recorded” adds a separate entry of the source. Where two headings read alike, the source gives them in different places.

As for `CCCCC[C@H](O)/C=C/[C@H]1C=CC(=O)[C@@H]1CCCCCCC(=O)O` [PGA1], the “growth hormone release / synthesis” value in the data set with growth hormone is on record as “increased synthesis of that hormone”. Moreover, the “inhibition of gastric secretion” value in the data set with gastric secretion [1] is reported as “inhibit gastric secretion”; in the data set with gastric secretion [2] it was “exhibits similar activity in man”.

`CCCCC[C@H](O)/C=C/[C@H]1[C@H](O)CC(=O)[C@@H]1CCCCCCC(=O)O` [PGE1]: the “inhibition of platelet aggregation by natural prostaglandin” value in the data set on human platelets was “displays similar activity”. In addition, the “growth hormone release / synthesis” value in the data set with growth hormone is “increase release of growth hormone”. The “inhibition of gastric secretion” value with gastric secretion [1] is given as “inhibit gastric secretion”. Further, in the data set with blood platelets, the inhibition of thrombogenesis result is listed as “inhibits thrombogenesis in vitro”.

In the case of `CCCCC[C@H](O)/C=C/[C@H]1[C@H](O)CC(=O)[C@@H]1C/C=C\CCCC(=O)O` [PGE2], the “growth hormone release / synthesis” value in the data set with growth hormone is recorded as “increase release of growth hormone”. In data set [3], the “effects in the female reproductive system” value was “exerts potent oxytocic effects in inducing labor”. In addition, in the data set on gastric secretion [1], the “inhibition of gastric secretion” value is given as “inhibit gastric secretion”.

`CCCCC[C@H](O)/C=C/[C@@H]1[C@@H](C/C=C\CCCC(=O)O)[C@@H](O)C[C@H]1O` [PGF2α]: in data set [3], the “effects in the female reproductive system” value is reported as “has centragestational effects; also recorded: appears to be involved in the mechanism of menstruation; also recorded: induces spontaneous abortions in early pregnancy”.
